Laboratory results taken from patent US20150126464A1, “THERAPEUTIC DRUG AND THERAPEUTIC METHOD FOR NEUROLOGICAL DISEASES INCLUDING ALZHEIMER'S DISEASE ASSOCIATED WITH 1,25D3-MARRS” (priority 2013, published 2015).

Assays:
Format in all cases: in vivo, mouse
[1] = system: 5XFAD mice; assay: Open field locomotion test in 5XFAD mice; details: i.p. 20 days, diosgenin 10 μmol/kg, memantine hydrochloride 200 μmol/kg/day, among the four groups
Method: (§1) Diosgenin was dissolved in dimethyl sulfoxide (DMSO) at 10 times the final concentration to give a stock solution. The stock solution was diluted in physiological saline to the final concentration immediately before treatment. The diosgenin solution was intraperitoneally administered to 5XFAD mice once a day (10 μmol/kg=4.14 mg/kg) for 20 days. On the last day of administration (Day 20), each mouse was housed in a separate open-field box made of polyvinyl chloride (33 cm×[…]; height: 26.5 cm) and habituated to the environment for 10 min.
For each mouse of Example 1, Comparative Examples 1 and 2, and Reference Example 1, the path during the 10-minute habituation was tracked using a digital camera system. The distance each mouse traveled during the 10 minutes was analyzed as locomotion activity with EthoVision 3.0 (Noldus, Wageningen, The Netherlands). The next day, a novel object recognition test was performed as described in Joyashiki, E. et al., Int J Neurosci, 121, 181-190, 2011 and Tohda, C. et al., Int J Neurosci, 121, 641-648, 2011, written by the inventors and others. Testing was carried out in a dimly illuminated room. […] In the present invention, the ratio (%) of the exploration time for the novel object to the total exploration time was calculated as an exploration preferential index. […]

[2] = system: 5XFAD mice; assay: Immunohistochemistry of brain slices of 5XFAD mice (amyloid plaques, PHF-tau, abnormal axons, presynapses); details: vs vehicle-treated 5XFAD
Method: One day after the novel object recognition test, the mice were anesthetized and transcardially perfused with cold physiological saline. The brains were carefully removed from the skull, immediately immersed in 10 to 30% sucrose-PBS and stored at -80° C. The brains were cut in 20-μm successive coronal slices every 100 μm in the parietal area (bregma 1.4-2 mm) sections using a cryostat (C[…], Leica, Heidelberg, Germany). The slices were fixed with 4% paraformaldehyde and stained with a polyclonal antibody against Aβ (1-40/42) (1:300) (Chemicon, Temecula, Calif., USA), a monoclonal antibody against pNF-H (1:500) (Covance, Emeryville, Calif., USA), a monoclonal antibody against synaptophysin (1:500) (Sigma-Aldrich), and a monoclonal antibody against PHF-tau (Thermo Scientific, Rockford, Ill., USA) at 4° C. for 20 hours. […] Three successive brain slices of the frontal cortex and five successive slices of the hippocampus were captured from a mouse for quantification. Extracellular amyloid plaques were determined by the size (greater than 50 μm in width), and the area of amyloid plaques was measured using the image analyzing software ImageJ. The area of the pNF-H-positive abnormal bulb-like axons was measured using ImageJ for every amyloid plaque in the fluorescent images (324 μm×430 μm). The areas of the synaptophysin-positive presynaptic boutons in every amyloid plaque were measured in fluorescent images (324 μm×430 μm) using Image J. The areas of PHF-tau in every amyloid plaque and outer amyloid plaques were measured in fluorescent images (324 μm×430 μm) using ImageJ.

[3] = system: spinal cord injury (SCI) mice; assay: Hindlimb motor function of spinal cord injury (SCI) mice (BMS, TMS); details: diosgenin 10 μmol/kg i.p. once a day for 7 days, vs vehicle
Method: In the spinal cord injury model test, 7-week-old female ddY mice (SLC) were used. The mice were maintained with free access to food and water in a controlled environment (22±2° C., 50±5% humidity, 12-h light/dark cycle starting at 7:00 am). A contusion was created by dropping a 3.0 g weight once onto an exposed first lumbar vertebrae (L1) of each mouse from a height of 3 cm using stereotaxic apparatus (made by Narishige). One hour after surgery, the mice were randomly divided into a vehicle solution-treated group and a diosgenin-treated group, and then drug administration was initiated.
Diosgenin (10 μmol/kg) was intraperitoneally administered to SCI mice once a day for 7 days.
One hour after the last administration in Example 13 and Comparative Example 17, each mouse was moved to an open field (23.5 cm×16.5 cm×12.5 cm) and observed for behavior evaluation for 5 minutes. The locomotion behavior in the open field was evaluated using the Basso Mouse Scale (BMS), which is a general standard for evaluation of the hindlimb function of SCI model mice (FIG. 14A), and a 0-18-point Toyama Mouse Scale (TMS), which is a modified BMS devised by the inventors for better test accuracy, (FIG. 14B).
The new Toyama Mouse Scale (TMS), which is a modified BMS devised by the inventors for better test accuracy, was used in the hindlimb function of SCI mice.

[4] = system: 5XFAD mice; assay: Novel object recognition test in 5XFAD mice (Alzheimer's disease model); details: i.p. once a day for 20 days, diosgenin 10 μmol/kg, memantine hydrochloride 200 μmol/kg/day, 30 min training-test interval
Text: Transgenic mice (5XFAD) as an animal model of AD were obtained from the Jackson Laboratory (Bar Harbor, Me., USA). The 5XFAD mice overexpress human APP695 cDNA having Swedish mutation (K670N and M671L), Florida mutation (I716V) and London mutation (V717I) and human PS1 cDNA (M146L and L286V) under the transcriptional control of the neuron-specific mouse Thy-1 promoter (Oakley, H. et al., J Neurosci, 26, 10129-10140, 2006). They were maintained by crossing hemizygous transgenic mice with B6/SJL F1 breeders.
To investigate the effect of diosgenin on 5XFAD, hemizygous 5XFAD mice (female, 6 to 8 months old) and non-transgenic littermate wild-type mice (female, 6 to 8 months old) were used. These mice were obtained by crossing hemizygous 5XFAD mice and B6/SJL F1 mice. All mice were housed with free access to food and water and were kept in a controlled environment (22±2° C., 50±5% humidity, 12-h light/dark cycle starting at 7:00 am).
as §1, with “min. […]” for “min.”
For each mouse of Example 1, Comparative Examples 1 and 2, and Reference Example 1, the path during the 10-minute habituation was tracked using a digital camera system. The distance each mouse traveled during the 10 minutes was analyzed as locomotion activity with EthoVision 3.0 (Noldus, Wageningen, The Netherlands). […] In the present invention, the ratio (%) of the exploration time for the novel object to the total exploration time was calculated as an exploration preferential index. […]

[5] = diosgenin 10 μmol/kg, memantine hydrochloride 200 μmol/kg/day i.p. 20 days

How did the “traveling speed and distance in open field locomotion test” value [1] turn out when C[C@@H]1CC[C@@]2(OC1)O[C@H]1C[C@H]3[C@@H]4CC=C5C[C@@H](O)CC[C@]5(C)[C@H]4CC[C@]3(C)[C@H]1[C@@H]2C [diosgenin] was run?
The value was “no significant differences”.

What about the “area of abnormal presynapses (swollen presynapse area) per amyloid plaque in the cerebral cortex” value ([2]; diosgenin 10 μmol/kg i.p. 20 days) of the same compound?
Its value is “significantly reduced”.

And the “area of abnormal axons (swollen axon area) per amyloid plaque in the cerebral cortex” value [2, 5]?
Its value is “significantly reduced”.

What about the “area of abnormal axons (swollen axon area) per amyloid plaque in the hippocampus” value [2, 5] of the same compound?
The value was “significantly reduced”.

And the “total area of PHF-tau in the cerebral cortex” value [2, 5]?
The value was “significantly reduced”.

And the “total area of PHF-tau in the hippocampus” value [2, 5]?
The value was “significantly reduced”.

And the “total area of amyloid plaques in the cerebral cortex” value [2, 5]?
Its value is “significantly reduced”.

What about the “total area of amyloid plaques in the hippocampus” value [2, 5] of the same compound?
Its value is “significantly reduced”.

What about the “hindlimb motor function (BMS and TMS)” value [3] of the same compound?
The value was “improved hindlimb motor function”.

What about the “novel object preferential index (exploration preferential index), test session” value [4] of the same compound?
The value was “higher than 50%”.
